Each structure is given as a SMILES string. Bounds are passed on as bounds.

Chain of P2Y purinoceptor 12 (Q9H244 whole entry): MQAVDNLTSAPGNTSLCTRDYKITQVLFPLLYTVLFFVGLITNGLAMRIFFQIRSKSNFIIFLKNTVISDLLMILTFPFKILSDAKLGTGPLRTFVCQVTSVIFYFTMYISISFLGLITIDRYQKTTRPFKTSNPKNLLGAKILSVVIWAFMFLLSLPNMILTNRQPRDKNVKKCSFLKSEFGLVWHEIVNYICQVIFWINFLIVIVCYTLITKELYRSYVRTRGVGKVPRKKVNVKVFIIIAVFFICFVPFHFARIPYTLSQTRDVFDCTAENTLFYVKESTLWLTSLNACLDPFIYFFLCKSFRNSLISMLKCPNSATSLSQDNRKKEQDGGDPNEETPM

The target in the first data set is Xanthine dehydrogenase/oxidase (Bos taurus, UniProt P80457). The data set is described as follows: Inhibition of bovine xanthine oxidase assessed as reduction in uric acid formation at 10 uM using xanthine as substrate preincubated for 15 mins followed by substrate addition measured at 30 sec interval for upto 2 mins by spectrophotometric analysis relative to control. The note with it: cattle, time 17 min.
Chain of Xanthine dehydrogenase/oxidase (P80457 whole entry): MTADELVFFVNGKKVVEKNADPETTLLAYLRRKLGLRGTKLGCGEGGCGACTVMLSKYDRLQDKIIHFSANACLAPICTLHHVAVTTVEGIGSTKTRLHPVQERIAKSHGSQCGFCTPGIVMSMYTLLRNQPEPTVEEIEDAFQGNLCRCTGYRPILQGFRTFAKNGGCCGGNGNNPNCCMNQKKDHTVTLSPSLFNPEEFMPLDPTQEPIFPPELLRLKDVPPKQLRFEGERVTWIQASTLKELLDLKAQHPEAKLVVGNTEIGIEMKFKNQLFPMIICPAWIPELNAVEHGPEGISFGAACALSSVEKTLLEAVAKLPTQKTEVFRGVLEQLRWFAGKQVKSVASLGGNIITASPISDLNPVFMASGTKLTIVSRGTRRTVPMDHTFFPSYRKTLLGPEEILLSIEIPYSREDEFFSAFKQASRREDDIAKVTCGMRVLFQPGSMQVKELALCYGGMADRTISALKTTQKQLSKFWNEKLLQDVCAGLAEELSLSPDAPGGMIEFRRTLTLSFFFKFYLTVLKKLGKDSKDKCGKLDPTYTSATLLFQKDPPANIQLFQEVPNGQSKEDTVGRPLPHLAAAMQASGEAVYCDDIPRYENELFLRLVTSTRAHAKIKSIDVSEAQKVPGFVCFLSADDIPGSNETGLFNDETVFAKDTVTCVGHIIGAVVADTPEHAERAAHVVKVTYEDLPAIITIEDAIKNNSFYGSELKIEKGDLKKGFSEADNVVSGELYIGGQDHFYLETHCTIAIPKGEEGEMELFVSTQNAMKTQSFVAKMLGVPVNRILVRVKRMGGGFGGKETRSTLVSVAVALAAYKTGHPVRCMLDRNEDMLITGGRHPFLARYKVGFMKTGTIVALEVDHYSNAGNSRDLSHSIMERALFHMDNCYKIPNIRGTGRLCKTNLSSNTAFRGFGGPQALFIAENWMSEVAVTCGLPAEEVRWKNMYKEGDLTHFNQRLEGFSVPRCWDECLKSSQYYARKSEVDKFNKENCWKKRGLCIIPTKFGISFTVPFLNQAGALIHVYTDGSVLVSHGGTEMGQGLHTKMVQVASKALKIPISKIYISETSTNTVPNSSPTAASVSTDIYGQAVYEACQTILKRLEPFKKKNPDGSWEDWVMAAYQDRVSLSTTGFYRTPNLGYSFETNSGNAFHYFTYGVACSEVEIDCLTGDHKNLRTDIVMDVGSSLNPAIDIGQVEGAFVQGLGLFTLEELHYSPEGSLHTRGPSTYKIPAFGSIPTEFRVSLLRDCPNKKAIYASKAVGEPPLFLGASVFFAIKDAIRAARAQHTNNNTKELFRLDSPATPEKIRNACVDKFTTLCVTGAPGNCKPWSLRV
For the compound `CCCSc1nc(N[C@@H]2C[C@H]2c2ccc(F)c(F)c2)c2nnn([C@@H]3C[C@H](OCCO)[C@@H](O)[C@H]3O)c2n1` [TICAGRELOR], the inhibition at 10 µM is less than 50%.

The test system of a further data set is Plasma. The data set is described as follows: Antiplatelet activity in rabbit platelet-rich plasma assessed as inhibition of ADP-induced platelet aggregation preincubated for 5 mins followed by ADP addition measured every 1 min for up to 6 mins by microplate reader analysis. In kind it is functional, cell-free. The note with it: Oryctolagus cuniculus.
In the case of `CCOC(=O)c1c(C)nc(-c2cccc(C#N)c2)n1OCc1ccncc1`, the IC50 was 6.2 µM.

Turning to `CCOC(=O)c1c(C)nc(-c2cccc(C#N)c2)n1OCc1cccc(F)c1`, the IC50 stood at 22.4 µM.

With `CCCSc1nc(N[C@@H]2C[C@H]2c2ccc(F)c(F)c2)c2nnn([C@@H]3C[C@H](OCCO)[C@@H](O)[C@H]3O)c2n1` [TICAGRELOR], the IC50 came to 7.21 µM.

Regarding `Cc1nc(-c2ccc(OCC(C)C)c(C#N)c2)n(O)c1C(=O)O`, the IC50 worked out at 15.7 µM.

`CCOC(=O)c1c(C)nc(-c2cccc(C#N)c2)n1OCc1ccccc1`: the IC50 was 5.93 µM.

On to `CCOC(=O)c1c(C)nc(-c2cccc(C#N)c2)n1OCc1ccc([N+](=O)[O-])cc1`, for which the IC50 amounted to 8.75 µM.

For the compound `Cc1nc(-c2cccc(C#N)c2)n(OCc2ccccc2)c1C(=O)O`, the IC50 was found to be 6.24 µM.

`CCOC(=O)c1c(C)nc(-c2ccccc2)n1OC`: the IC50 is more than 30 µM.

Take `CCOC(=O)c1c(C)nc(-c2cccc(C#N)c2)n1OCc1ccc(C(=O)OC)cc1`: the IC50 stood at 9.47 µM.

As for `CCOCCOn1c(-c2cccc(C#N)c2)nc(C)c1C(=O)OCC`, the IC50 was 6.25 µM.

For `CCOC(=O)c1c(C)nc(-c2cccc(C#N)c2)n1OCc1cccc(Cl)c1`, the IC50 was 19.4 µM.

For `CCOC(=O)c1c(C)nc(-c2ccc(OCC(C)C)c(C#N)c2)n1O`, the IC50 turned out to be 16.8 µM.

`CCOC(=O)c1c(C)nc(-c2cccc(C#N)c2)n1OCc1ccc(Br)cc1`: the IC50 is 24.6 µM.

Regarding `CCOC(=O)c1c(C)nc(-c2cccc(C#N)c2)n1OCCC(=O)O`, the IC50 is more than 30 µM.

For `CC(C)(C)c1ccccc1Oc1ncccc1NC(=O)Nc1ccc(OC(F)(F)F)cc1`, the IC50 is 5.54 µM.

In the case of `CCOC(=O)c1c(C)nc(-c2cccc(C#N)c2)n1OCc1ccccc1Cl`, the IC50 was 8.71 µM.

On to `CCOC(=O)c1c(C)nc(-c2cccc(C#N)c2)n1C`, for which the IC50 was 22.1 µM.

Consider `CCOC(=O)c1c(C)nc(-c2cccc(C#N)c2)n1O`, for which the IC50 was 17.6 µM.

Take `CCOC(=O)c1c(C)nc(-c2cccc(C#N)c2)n1OCc1ccccc1F`: the IC50 was 8.99 µM.

In the case of `CCOC(=O)c1[nH]c(-c2cccc(C#N)c2)nc1C`, the IC50 is more than 30 µM.

Turning to `C=CCOn1c(-c2cccc(C#N)c2)nc(C)c1C(=O)OCC`, the IC50 was 5.86 µM.

On to `CCOC(=O)COn1c(-c2cccc(C#N)c2)nc(C)c1C(=O)OCC`, for which the IC50 was found to be 6.8 µM.

In the case of `CCOC(=O)c1c(C)nc(-c2ccccc2C#N)n1OC`, the IC50 is 14.9 µM.

For the compound `CCOC(=O)c1c(C)nc(-c2cccc(C#N)c2)n1OCc1ccc(Cl)cc1`, the IC50 was 6.83 µM.

As for `CCOC(=O)c1c(C)nc(-c2cccc(C#N)c2)n1OCc1ccccc1C#N`, the IC50 came to 9.38 µM.

Regarding `CCOC(=O)c1c(C)nc(-c2cccc(C#N)c2)n1C(C)C`, the concentration for half-maximal inhibition (IC50) came out at 9.26 µM.

`CCOC(=O)c1c(C)nc(-c2ccc(C#N)cc2)n1OC`: the IC50 worked out at 13.4 µM.

Consider `CCOC(=O)c1c(C)nc(-c2cccc(C#N)c2)n1OCc1cccc(C#N)c1`, for which the IC50 is more than 30 µM.

In the case of `CCOC(=O)c1c(C)nc(-c2cccc(C#N)c2)n1OC`, the IC50 was found to be 9.13 µM.

On to `COn1c(-c2cccc(C#N)c2)nc(C)c1C(=O)O`, for which the IC50 stood at 7.99 µM.

`C=CCOn1c(-c2cccc(C#N)c2)nc(C)c1C(=O)O`: the IC50 is 6.35 µM.

Regarding `CCOC(=O)c1c(C)nc(-c2cccc(C#N)c2)n1OC(C)C`, the IC50 was 6.74 µM.

Consider `CCOC(=O)c1c(C)nc(-c2cccc(C#N)c2)n1OCCCO`, for which the IC50 was 11.4 µM.

As for `CCOC(=O)c1c(C)nc(-c2cccc(C#N)c2)n1OCc1ccc(C)cc1`, the IC50 amounted to 6.31 µM.

Turning to `CCOC(=O)c1c(C)nc(-c2cccc(C#N)c2)n1OCC(N)=O`, the IC50 was more than 30 µM.

In the case of `Cc1ccc(COn2c(-c3cccc(C#N)c3)nc(C)c2C(=O)O)cc1`, the IC50 worked out at 6.56 µM.

For `CCOC(=O)c1c(C)nc(-c2cccc(C#N)c2)n1OCc1ccc(OC)cc1`, the IC50 is 6.83 µM.

Consider `CCOC(=O)c1c(C)nc(-c2cccc(C#N)c2)n1OCc1ccc(F)cc1`, for which the IC50 came to 5.88 µM.

Test system in the next data set: not listed separately
The data set is described as follows: Toxicity in Sprague-Dawley rat model of tail-snip bleeding assessed as bleeding time at 10 mg/kg, po administered via gavage as single dose measured within 2 hrs post tail snip (reference value: 17.69 min). The note with it: in vivo. In kind it is organism-based.
Turning to `CCCSc1nc(N[C@@H]2C[C@H]2c2ccc(F)c(F)c2)c2nnn([C@@H]3C[C@H](OCCO)[C@@H](O)[C@H]3O)c2n1` [TICAGRELOR], the Time is 120 min.

Test system in the next data set: not listed separately
The data set is described as follows: Toxicity in Sprague-Dawley rat model of tail snip bleeding assessed as bleeding weight at 10 mg/kg, po administered via gavage as single dose measured within 2 hrs post tail snip(reference value: 0.08 g). The note with it: in vivo. The format is organism-based.
For the compound `CCCSc1nc(N[C@@H]2C[C@H]2c2ccc(F)c(F)c2)c2nnn([C@@H]3C[C@H](OCCO)[C@@H](O)[C@H]3O)c2n1` [TICAGRELOR], the Activity was found to be 3.89 g.

A further data set concerns the target P2Y purinoceptor 12 (Homo sapiens, UniProt Q9H244). The data set is described as follows: Antagonist activity at P2Y12 in human whole blood assessed as suppression of ADP-induced decrease in PGE1-induced VASP phosphorylation measured after 10 mins by immunostaining based flow cytometric analysis. The format is tissue-based.
Conditions: not given
`CCCSc1nc(N[C@@H]2C[C@H]2c2ccc(F)c(F)c2)c2nnn([C@@H]3C[C@H](OCCO)[C@@H](O)[C@H]3O)c2n1` [TICAGRELOR]: the IC50 came out at 5.14 µM.

Consider `CNc1nc(Cl)nc2c1ncn2CC(COC(=O)C(C)(C)C)COC(=O)C(C)(C)C`, for which the IC50 worked out at 176 µM.

Test system in another data set: not listed separately
The data set is described as follows: Antagonist activity at P2Y1 in rabbit platelet-rich plasma assessed as inhibition of ADP-induced increase in intracellular Ca2+ concentration preincubated for 5 mins followed by ADP addition and measured for 3 mins by fluo4 dye-based fluorescence assay. The format is cell-free. The note with it: Oryctolagus cuniculus.
With `CC(C)(C)c1ccccc1Oc1ncccc1NC(=O)Nc1ccc(OC(F)(F)F)cc1`, the IC50 is 3.03 µM.

A further data set has as its system Rattus norvegicus. The data set is described as follows: Antithrombotic activity in FeCl3-induced Sprague-Dawley rat model of arterial thrombosis assessed as reduction in thrombus weight at 10 mg/kg, po qd administered as single dose for 7 days and measured 2 hrs post last dose. In kind it is functional. The arrangement: scale not given: the % may be the effect or the level left. The note with it: time 7 day.
On to `CCCSc1nc(N[C@@H]2C[C@H]2c2ccc(F)c(F)c2)c2nnn([C@@H]3C[C@H](OCCO)[C@@H](O)[C@H]3O)c2n1` [TICAGRELOR], for which the Activity was found to be 39.2%.
